Assay results as given in PMC7531004, “Discovery of gramicidin A analogues with altered activities by multidimensional screening of a one-bead-one-compound library” (Nature Communications, 2020).
Where a SMILES comes first, the peptide text is derived from it. [ ]: non-standard residue; d: D form. The star is where a group is joined. NHCH2CH2OH = OCCN*; For = O=C*

Legend:
[1] = H+/Na+ transport assay of bead-derived peptides (one-point); assay type: biochemical; parameters: key: relative activity; mean of two control wells = 1.00; conditions: bead-derived peptide solution, EYPC/EYPG LUVs;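 note: relative to parent gramicidin A activity set to 1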
Outline: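 Values are normalized fluorescence, with Triton X-100 defining 100% and untreated LUVs 0%, and the two control wells averaging 1.00. Vesicles carried 1.0 mM pyranine and included egg yolk phosphatidylglycerol. Peptides were incubated with them 30 min at room temperature.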

[2] = system: P388 mouse leukemia cells; conditions: 92 h
Outline: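 First, library peptide stocks are diluted 250-fold in RPMI1640 with 10% heat-inactivated FBS. Next, they are mixed with P388 cells to give 1 × 10^4 cells/mL and incubated 92 h at 37 °C, 5% CO2. Finally, viability (%) is scored by WST-1 absorbance at 415 nm.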

[3] = system: Streptococcus pyogenes SSI-9; assay: Antibacterial activity assay of bead-derived peptides (three concentrations); assay type: cell-based; parameters: key: +++: inhibition by the 640-fold diluted peptide solution; ++: inhibition by the 160-fold diluted solution; +: inhibition by the 40-fold diluted solution; -: no inhibition; conditions: S. pyogenes, bead-derived peptide solution, three concentrations
Outline: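 Bead-derived library peptide stocks in DMSO were tested undiluted and after 4- and 16-fold DMSO dilution against S. pyogenes SSI-9 (2 × 10^5 CFU/well) in cation-adjusted Mueller Hinton Broth with 5% laked horse blood. After 18 h at 37 °C, wells were scored for precipitation of grown cells.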

SMILES | H+/Na+ transport activity normalized against the value of 1 (1.00) [1] | cell viability/% [2] [%] | antibacterial activity [3]
CNC(=O)C[C@@H](NC(=O)[C@H](Cc1c[nH]c2ccccc12)NC(=O)[C@@H](CC(C)C)NC(=O)[C@H](Cc1c[nH]c2ccccc12)NC(=O)[C@H](NC(=O)[C@H](Cc1c[nH]c2ccccc12)NC(=O)[C@H](NC(=O)[C@@H](NC(=O)[C@@H](CC(C)C)NC(=O)[C@H](C)NC(=O)[C@H](NC(=O)[C@H](C)NC(=O)CNC(=O)[C@@H](NC=O)C(C)C)C(C)C)C(C)C)C(C)C)C(C)C)C(=O)N[C@@H](Cc1c[nH]c2ccccc12)C(=O)NCCO [compound 6329] (For-VGA[dV]A[dL]V[dV]W[dV]W[dL]W[dD](NHMe)W-NHCH2CH2OH) | 1.03 | 43.5 | -
CNC(=O)C[C@@H](NC(=O)[C@H](C)NC(=O)[C@@H](CC(C)C)NC(=O)[C@H](C)NC(=O)CNC(=O)[C@@H](NC=O)C(C)C)C(=O)N[C@H](C(=O)N[C@@H](C(=O)N[C@@H](Cc1c[nH]c2ccccc12)C(=O)N[C@H](CC(C)C)C(=O)N[C@@H](Cc1c[nH]c2ccccc12)C(=O)N[C@@H](C(=O)N[C@@H](Cc1c[nH]c2ccccc12)C(=O)N[C@H](CC(C)C)C(=O)N[C@@H](Cc1c[nH]c2ccccc12)C(=O)NCCO)C(C)C)C(C)C)C(C)C [compound 13123] (For-VGA[dL]A[dD](NHMe)V[dV]W[dL]W[dV]W[dL]W-NHCH2CH2OH) | 1.24 | 100.0 | -
CC(C)C[C@@H](NC(=O)[C@H](C)NC(=O)[C@H](NC(=O)[C@H](C)NC(=O)CNC(=O)[C@@H](NC=O)C(C)C)C(C)C)C(=O)N[C@H](C(=O)N[C@@H](C(=O)N[C@@H](Cc1c[nH]c2ccccc12)C(=O)N[C@@H](C(=O)N[C@@H](Cc1c[nH]c2ccccc12)C(=O)N[C@H](CC(C)C)C(=O)N[C@@H](Cc1c[nH]c2ccccc12)C(=O)N[C@@H](C(=O)N[C@@H](Cc1c[nH]c2ccccc12)C(=O)NCCO)[C@H](C)O)C(C)C)C(C)C)C(C)C [compound 7393] (For-VGA[dV]A[dL]V[dV]W[dV]W[dL]W[dT]W-NHCH2CH2OH) | 1.07 | 100.0 | -
CC(C)C[C@@H](NC(=O)[C@H](Cc1c[nH]c2ccccc12)NC(=O)[C@H](NC(=O)[C@H](Cc1c[nH]c2ccccc12)NC(=O)[C@@H](CC(C)C)NC(=O)[C@@H](NC(=O)[C@H](NC(=O)[C@H](C)NC(=O)[C@H](NC(=O)[C@H](C)NC(=O)CNC(=O)[C@@H](NC=O)C(C)C)[C@H](C)O)C(C)C)C(C)C)C(C)C)C(=O)N[C@@H](Cc1c[nH]c2ccccc12)C(=O)N[C@@H](C(=O)N[C@@H](Cc1c[nH]c2ccccc12)C(=O)NCCO)C(C)C [compound 4187] (For-VGA[dT]A[dV]V[dL]W[dV]W[dL]W[dV]W-NHCH2CH2OH) | 1.32 | 95.1 | -
CC(C)C[C@@H](NC(=O)[C@H](C)NC(=O)CNC(=O)[C@@H](NC=O)C(C)C)C(=O)N[C@@H](C)C(=O)N[C@@H](C(=O)N[C@H](C(=O)N[C@H](CC(C)C)C(=O)N[C@@H](Cc1c[nH]c2ccccc12)C(=O)N[C@H](CC(C)C)C(=O)N[C@@H](Cc1c[nH]c2ccccc12)C(=O)N[C@@H](C(=O)N[C@@H](Cc1c[nH]c2ccccc12)C(=O)N[C@H](CC(C)C)C(=O)N[C@@H](Cc1c[nH]c2ccccc12)C(=O)NCCO)C(C)C)C(C)C)C(C)C [compound 13252] (For-VGA[dL]A[dV]V[dL]W[dL]W[dV]W[dL]W-NHCH2CH2OH) | 1.14 | 2.6 | -
CC(C)C[C@@H](NC(=O)[C@H](C)NC(=O)CNC(=O)[C@@H](NC=O)C(C)C)C(=O)N[C@@H](C)C(=O)N[C@H](CC(C)C)C(=O)N[C@H](C(=O)N[C@H](CC(C)C)C(=O)N[C@@H](Cc1c[nH]c2ccccc12)C(=O)N[C@H](CC(C)C)C(=O)N[C@@H](Cc1c[nH]c2ccccc12)C(=O)N[C@@H](C(=O)N[C@@H](Cc1c[nH]c2ccccc12)C(=O)N[C@H](CC(C)C)C(=O)N[C@@H](Cc1c[nH]c2ccccc12)C(=O)NCCO)C(C)C)C(C)C [compound 9473] (For-VGA[dL]A[dL]V[dL]W[dL]W[dV]W[dL]W-NHCH2CH2OH) | 1.04 | 0.0 | -
CC(C)C[C@@H](NC(=O)[C@H](C)NC(=O)[C@H](NC(=O)[C@H](C)NC(=O)CNC(=O)[C@@H](NC=O)C(C)C)C(C)C)C(=O)N[C@H](C(=O)N[C@@H](C(=O)N[C@@H](Cc1c[nH]c2ccccc12)C(=O)N[C@H](CC(C)C)C(=O)N[C@@H](Cc1c[nH]c2ccccc12)C(=O)N[C@@H](C(=O)N[C@@H](Cc1c[nH]c2ccccc12)C(=O)N[C@@H](C(=O)N[C@@H](Cc1c[nH]c2ccccc12)C(=O)NCCO)C(C)C)C(C)C)C(C)C)C(C)C [compound 8697] (For-VGA[dV]A[dL]V[dV]W[dL]W[dV]W[dV]W-NHCH2CH2OH) | 1.04 | 100.0 | +
CNC(=O)C[C@@H](NC(=O)[C@H](Cc1c[nH]c2ccccc12)NC(=O)[C@@H](CC(C)C)NC(=O)[C@H](Cc1c[nH]c2ccccc12)NC(=O)[C@@H](CC(C)C)NC(=O)[C@H](Cc1c[nH]c2ccccc12)NC(=O)[C@H](NC(=O)[C@@H](NC(=O)[C@@H](CC(C)C)NC(=O)[C@H](C)NC(=O)[C@@H](CC(C)C)NC(=O)[C@H](C)NC(=O)CNC(=O)[C@@H](NC=O)C(C)C)C(C)C)C(C)C)C(=O)N[C@@H](Cc1c[nH]c2ccccc12)C(=O)NCCO [compound 11401] (For-VGA[dL]A[dL]V[dV]W[dL]W[dL]W[dD](NHMe)W-NHCH2CH2OH) | 1.09 | 56.6 | -
CC(C)C[C@@H](NC(=O)[C@H](C)NC(=O)[C@H](NC(=O)[C@H](C)NC(=O)CNC(=O)[C@@H](NC=O)C(C)C)C(C)C)C(=O)N[C@H](C(=O)N[C@@H](C(=O)N[C@@H](Cc1c[nH]c2ccccc12)C(=O)N[C@H](CC(C)C)C(=O)N[C@@H](Cc1c[nH]c2ccccc12)C(=O)N[C@@H](C(=O)N[C@@H](Cc1c[nH]c2ccccc12)C(=O)N[C@@H](C(=O)N[C@@H](Cc1c[nH]c2ccccc12)C(=O)NCCO)C(C)C)C(C)C)[C@H](C)O)C(C)C [compound 8779] (For-VGA[dV]A[dL]V[dT]W[dL]W[dV]W[dV]W-NHCH2CH2OH) | 1.07 | 40.6 | -
CNC(=O)C[C@@H](NC(=O)[C@@H](NC(=O)[C@@H](CC(C)C)NC(=O)[C@H](C)NC(=O)[C@H](NC(=O)[C@H](C)NC(=O)CNC(=O)[C@@H](NC=O)C(C)C)C(C)C)C(C)C)C(=O)N[C@@H](Cc1c[nH]c2ccccc12)C(=O)N[C@@H](C(=O)N[C@@H](Cc1c[nH]c2ccccc12)C(=O)N[C@@H](C(=O)N[C@@H](Cc1c[nH]c2ccccc12)C(=O)N[C@@H](C(=O)N[C@@H](Cc1c[nH]c2ccccc12)C(=O)NCCO)C(C)C)C(C)C)C(C)C [compound 11383] (For-VGA[dV]A[dL]V[dD](NHMe)W[dV]W[dV]W[dV]W-NHCH2CH2OH) | 1.09 | 55.3 | -
